In ChEMBL document CHEMBL1201862, “PubChem BioAssay data set” (2004):
The source made the active and inactive calls.

Assays:
[1] = molecular target: Glycogen synthase kinase-3 alpha (Homo sapiens, UniProt P49840); test: GSK3A enzyme blockers, homolog specificity check – biochemical, microfluidics, dry powder samples, set 2, selectivity assay for GSK3beta inhibitor project, dose response (AID 623978); type: functional
[2] = molecular target: Glycogen synthase kinase-3 beta (Homo sapiens, UniProt P49841); test: inhibition of human GSK3B activity – biochemical, microfluidics, dry powder samples, set 2, dose response (AID 623989); type: functional
[3] = HEK-293T viability loss after treatment – luminescence, T-cell screen hits, cytotoxicity control for TCR NF-kB inhibitor project, dose response (AID 489026); type: functional, cell-based;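 also: cells exposed to compound about 14 hours before the viability readout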
[4] = system: BJ; test: BJ-TERT-LT-ST fibroblast viability loss – cell-based, RAS-independent, luminescence, dose response (AID 1935); type: functional; details: Homo sapiens;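 also: BJ fibroblasts immortalized with TERT plus LT and ST oncogenes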
[5] = Luminescence Cell-Based Dose Confirmation HTS to Identify Activators of 5'UTR Stem-Loop Driven Alpha-Synuclein mRNA Translation in H4 Neuroglioblastoma Cells. [Related pubchem assays: 1829 (Project Summary), 1814 (Primary HTS)]; type: functional
[6] = molecular target: Mu-type opioid receptor (Homo sapiens, UniProt P35372); test: HTS Image-Based Screen for Agonists of the MOR Receptor. [Related pubchem assays (depositor defined):AID1777, AID1785, AID1786, AID2133]; type: functional;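 also: imaging of beta-arrestin GFP recruitment into spots after receptor activation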
[7] = reduction of Shn3 3'UTR-driven luciferase in osteoblasts – cell-based, Clone20 osteoblasts, firefly luciferase, cherry-picked, dose response (AID 624132); type: functional;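 also: firefly luciferase luminescence from reporter carrying the Shn3 3'UTR in osteoblasts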
[8] = molecular target: T1, Beta-galactosidase (Escherichia coli, UniProt Q8VNN2); type: functional
T1 sequence (Q8VNN2 whole entry): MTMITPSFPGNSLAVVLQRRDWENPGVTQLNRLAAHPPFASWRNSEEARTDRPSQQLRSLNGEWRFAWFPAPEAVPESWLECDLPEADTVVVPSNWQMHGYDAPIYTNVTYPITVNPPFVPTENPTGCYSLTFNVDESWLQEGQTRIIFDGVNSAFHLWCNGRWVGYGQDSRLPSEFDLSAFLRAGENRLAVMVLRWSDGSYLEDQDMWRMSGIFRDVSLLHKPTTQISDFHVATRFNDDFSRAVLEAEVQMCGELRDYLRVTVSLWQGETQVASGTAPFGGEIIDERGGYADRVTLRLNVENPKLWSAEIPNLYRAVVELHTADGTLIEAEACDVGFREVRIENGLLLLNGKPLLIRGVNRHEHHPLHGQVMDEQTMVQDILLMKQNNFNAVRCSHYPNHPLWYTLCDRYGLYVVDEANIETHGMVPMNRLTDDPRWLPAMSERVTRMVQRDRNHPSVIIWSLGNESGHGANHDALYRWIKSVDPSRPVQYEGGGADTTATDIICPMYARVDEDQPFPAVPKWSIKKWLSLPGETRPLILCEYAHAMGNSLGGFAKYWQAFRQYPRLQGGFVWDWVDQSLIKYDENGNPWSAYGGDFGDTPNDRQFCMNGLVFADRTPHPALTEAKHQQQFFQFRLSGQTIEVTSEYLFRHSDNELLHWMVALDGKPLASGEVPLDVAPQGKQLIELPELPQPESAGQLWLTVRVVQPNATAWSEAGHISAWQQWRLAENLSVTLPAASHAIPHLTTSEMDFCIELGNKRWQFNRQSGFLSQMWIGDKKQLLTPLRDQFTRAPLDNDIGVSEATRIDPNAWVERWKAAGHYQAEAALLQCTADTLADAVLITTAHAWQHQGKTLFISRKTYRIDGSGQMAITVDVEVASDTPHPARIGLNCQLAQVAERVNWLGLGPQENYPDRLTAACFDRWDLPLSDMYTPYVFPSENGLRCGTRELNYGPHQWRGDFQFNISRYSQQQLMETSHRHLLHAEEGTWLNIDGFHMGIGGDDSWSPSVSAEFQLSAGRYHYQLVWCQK

[9] = system: Vero; test: cells; type: functional; details: Chlorocebus sabaeus
[10] = system: BJ; test: BJ-TERT fibroblast viability loss – cell-based, RAS-independent, luminescence, dose response (AID 1933); type: functional; details: Homo sapiens
[11] = molecular target: T2, Kappa-type opioid receptor (Homo sapiens, UniProt P41145); type: functional
T2 sequence (P41145 whole entry): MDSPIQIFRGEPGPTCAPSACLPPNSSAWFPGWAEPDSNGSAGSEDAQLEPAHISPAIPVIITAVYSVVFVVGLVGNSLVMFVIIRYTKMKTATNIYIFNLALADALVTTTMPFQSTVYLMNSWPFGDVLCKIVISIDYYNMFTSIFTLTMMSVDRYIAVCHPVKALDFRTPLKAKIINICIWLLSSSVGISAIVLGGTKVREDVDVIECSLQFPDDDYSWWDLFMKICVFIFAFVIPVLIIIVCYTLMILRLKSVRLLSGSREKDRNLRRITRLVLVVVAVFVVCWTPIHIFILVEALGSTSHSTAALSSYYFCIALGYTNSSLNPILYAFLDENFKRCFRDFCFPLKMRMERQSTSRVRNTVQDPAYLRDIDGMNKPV

[12] = molecular target: Prothrombin (Bos taurus, UniProt P00735); test: thrombin protease inhibitors – biochemical, fluorescence polarization, uHTS hits, dose response (AID 602369); type: functional
[13] = system: BJ; test: growth inhibition of engineered Ras-driven BJ cells – cell-based, alamar blue fluorescence, cherrypicked samples, dose response (AID 2631); type: functional; details: Homo sapiens;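 also: confirmatory dose-response assay in RAS-dependent BJ fibroblasts engineered with TERT, LT and ST, with cytotoxicity read by fluorescence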
[14] = NIH-3T3 fibroblast cytotoxicity, dose response, cytotoxicity control, cell-based, fluorescence, Alamar Blue, secondary assay (AID 2327); type: functional;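 also: NIH-3T3 mouse fibroblasts cultured with fluconazole at 8 µg/mL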
[15] = molecular target: T3, Polyadenylate-binding protein 1 (Homo sapiens, UniProt P11940); test: MLLE binding blockers, Cy5 peptide tracer – biochemical, fluorescence polarization, Cy5-PAM2 peptide, secondary, miRNA deadenylation inhibitor project, dose response (AID 602260); type: functional; details: read-out: IC50_Mean
T3 sequence (P11940 whole entry): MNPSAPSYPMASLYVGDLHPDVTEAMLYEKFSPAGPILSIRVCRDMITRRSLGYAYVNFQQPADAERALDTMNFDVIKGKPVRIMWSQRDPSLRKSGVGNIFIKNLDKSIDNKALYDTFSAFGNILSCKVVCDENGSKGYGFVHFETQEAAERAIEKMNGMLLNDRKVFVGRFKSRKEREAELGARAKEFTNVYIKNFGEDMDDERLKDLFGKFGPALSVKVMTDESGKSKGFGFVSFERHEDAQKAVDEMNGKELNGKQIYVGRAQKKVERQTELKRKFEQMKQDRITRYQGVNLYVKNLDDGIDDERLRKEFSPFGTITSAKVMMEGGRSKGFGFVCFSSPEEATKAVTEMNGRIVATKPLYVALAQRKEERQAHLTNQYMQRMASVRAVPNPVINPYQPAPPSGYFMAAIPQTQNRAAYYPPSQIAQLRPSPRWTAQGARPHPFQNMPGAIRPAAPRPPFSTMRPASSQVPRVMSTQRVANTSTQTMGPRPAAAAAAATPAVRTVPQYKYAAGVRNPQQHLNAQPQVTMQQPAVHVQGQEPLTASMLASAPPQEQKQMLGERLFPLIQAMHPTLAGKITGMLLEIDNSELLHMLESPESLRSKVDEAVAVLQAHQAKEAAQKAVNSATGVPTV

[16] = Luminescence Cell-Based Dose Response HTS to Identify Activators of Luciferase Translation or Activity in H4 […] Cells. [Related pubchem assays: 1829 (Project Summary), 1814 (Primary HTS)]; type: functional
[17] = system: BJ; test: cells; type: functional, cell-based; details: Homo sapiens
[18] = system: Vero; test: cells; type: functional, cell-based; details: Chlorocebus sabaeus
[19] = DRD fibroblast viability loss – cell-based, non-viral oncogenic, luminescence, dose response (AID 1934); type: functional; details: Homo sapiens
[20] = molecular target: T2, Kappa-type opioid receptor; type: functional; remark: listed apart in the source
[21] = molecular target: T1, Beta-galactosidase; test: PubChem AID 485352; type: functional
[22] = Luminescence-based dose response cell-based high throughput screening assay for cytotoxic compounds using the IEC-6 intestinal epithelial cell line. [Related pubchem assays: 1858 (Summary AID.), 1825 (Counterscreen.), 1907 (Confirmation screen.)]; type: functional
[23] = molecular target: T4, Delta-type opioid receptor (Homo sapiens, UniProt P41143); test: HTS Image-Based Screen for Antagonists of the DOR Receptor. [Related pubchem assays (depositor defined):AID1777, AID1785, AID1786, AID2133]; type: functional
T4 sequence (P41143 whole entry): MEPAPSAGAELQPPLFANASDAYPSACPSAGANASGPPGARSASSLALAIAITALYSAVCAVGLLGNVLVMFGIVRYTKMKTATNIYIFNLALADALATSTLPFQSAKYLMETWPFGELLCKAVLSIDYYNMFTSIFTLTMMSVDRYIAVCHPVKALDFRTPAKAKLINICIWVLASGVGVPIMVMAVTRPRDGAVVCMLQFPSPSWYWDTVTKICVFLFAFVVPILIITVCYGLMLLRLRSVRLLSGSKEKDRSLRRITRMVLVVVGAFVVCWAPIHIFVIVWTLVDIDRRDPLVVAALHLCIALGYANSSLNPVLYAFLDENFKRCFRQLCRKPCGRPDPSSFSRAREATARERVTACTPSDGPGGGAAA

[24] = molecular target: 72 kDa type IV collagenase (Homo sapiens, UniProt P08253); test: Dose Response validation of uHTS RPN11 inhibitor hits using a MMP-2 Fluorescence assay.; type: functional
[25] = molecular target: Type-1 angiotensin II receptor (Homo sapiens, UniProt P30556); test: antagonism of angiotensin II type 1 receptor – cell-based, uHTS hits, selectivity assay for APJ receptor antagonist project, dose response (AID 463214); type: functional;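 also: antagonist potency against angiotensin II stimulated AT1 response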
Sequence of Type-1 angiotensin II receptor (P30556 whole entry): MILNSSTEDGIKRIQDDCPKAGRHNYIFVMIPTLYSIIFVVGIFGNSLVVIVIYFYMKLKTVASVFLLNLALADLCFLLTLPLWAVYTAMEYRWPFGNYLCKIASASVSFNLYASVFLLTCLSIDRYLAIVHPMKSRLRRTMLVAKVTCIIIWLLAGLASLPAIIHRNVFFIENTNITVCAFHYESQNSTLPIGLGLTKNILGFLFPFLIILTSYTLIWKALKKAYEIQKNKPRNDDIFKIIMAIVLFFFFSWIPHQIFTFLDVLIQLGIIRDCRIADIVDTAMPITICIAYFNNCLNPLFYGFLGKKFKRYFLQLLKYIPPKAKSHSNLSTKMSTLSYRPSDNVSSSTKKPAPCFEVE

[26] = molecular target: T4, Delta-type opioid receptor; test: HTS Image-Based Screen for Agonists of the DOR Receptor. [Related pubchem assays (depositor defined):AID1777, AID1786, AID2133]; type: functional
[27] = molecular target: T3, Polyadenylate-binding protein 1; test: MLLE domain peptide-binding blockers, IC50 – biochemical, fluorescence polarization, FITC-PAM2 peptide, dose response (AID 602259); type: functional; details: read-out: IC50_Mean
[28] = molecular target: 26S proteasome non-ATPase regulatory subunit 14 (Homo sapiens, UniProt O00487); test: inhibition of proteasome subunit RPN11 – biochemical, fluorescence polarization, uHTS hits, confirmation (AID 602368); type: functional
Sequence of 26S proteasome non-ATPase regulatory subunit 14 (O00487 whole entry): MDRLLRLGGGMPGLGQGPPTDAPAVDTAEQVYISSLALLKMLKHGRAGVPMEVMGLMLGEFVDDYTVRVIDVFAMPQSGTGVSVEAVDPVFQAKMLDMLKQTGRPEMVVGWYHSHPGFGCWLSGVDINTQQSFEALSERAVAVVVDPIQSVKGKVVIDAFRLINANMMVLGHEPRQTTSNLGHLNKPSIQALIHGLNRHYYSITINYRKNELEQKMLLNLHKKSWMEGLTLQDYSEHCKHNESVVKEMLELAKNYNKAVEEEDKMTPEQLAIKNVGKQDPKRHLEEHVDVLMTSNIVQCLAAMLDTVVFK

[29] = non-specific 3'UTR reporter inhibition in Clone20-Shn3RL – cell-based, Renilla luciferase, cherry-picked, counter-screen for Shn3 inhibitor project, dose response (AID 624133); type: functional
[30] = system: H4; test: Luminescence Cell-Based Dose Response HTS to Identify Activators of 5'UTR Stem-Loop Driven Prion Protein mRNA Translation in H4 Neuroglioblastoma Cells. [Related pubchem assays: 1829 (Project Summary), 1814 (Primary HTS)]; type: functional; details: Homo sapiens
[31] = molecular target: Multidrug resistance protein CDR2 (Candida albicans (strain SC5314 / ATCC MYA-2876) (Yeast), UniProt P78595); test: inhibition of Nile Red efflux via Candida CDR2 – S. cerevisiae AD1-8u, singleplex, Cherry Pick1 hits, dose response (AID 588604); type: functional
Sequence of Multidrug resistance protein CDR2 (P78595 whole entry): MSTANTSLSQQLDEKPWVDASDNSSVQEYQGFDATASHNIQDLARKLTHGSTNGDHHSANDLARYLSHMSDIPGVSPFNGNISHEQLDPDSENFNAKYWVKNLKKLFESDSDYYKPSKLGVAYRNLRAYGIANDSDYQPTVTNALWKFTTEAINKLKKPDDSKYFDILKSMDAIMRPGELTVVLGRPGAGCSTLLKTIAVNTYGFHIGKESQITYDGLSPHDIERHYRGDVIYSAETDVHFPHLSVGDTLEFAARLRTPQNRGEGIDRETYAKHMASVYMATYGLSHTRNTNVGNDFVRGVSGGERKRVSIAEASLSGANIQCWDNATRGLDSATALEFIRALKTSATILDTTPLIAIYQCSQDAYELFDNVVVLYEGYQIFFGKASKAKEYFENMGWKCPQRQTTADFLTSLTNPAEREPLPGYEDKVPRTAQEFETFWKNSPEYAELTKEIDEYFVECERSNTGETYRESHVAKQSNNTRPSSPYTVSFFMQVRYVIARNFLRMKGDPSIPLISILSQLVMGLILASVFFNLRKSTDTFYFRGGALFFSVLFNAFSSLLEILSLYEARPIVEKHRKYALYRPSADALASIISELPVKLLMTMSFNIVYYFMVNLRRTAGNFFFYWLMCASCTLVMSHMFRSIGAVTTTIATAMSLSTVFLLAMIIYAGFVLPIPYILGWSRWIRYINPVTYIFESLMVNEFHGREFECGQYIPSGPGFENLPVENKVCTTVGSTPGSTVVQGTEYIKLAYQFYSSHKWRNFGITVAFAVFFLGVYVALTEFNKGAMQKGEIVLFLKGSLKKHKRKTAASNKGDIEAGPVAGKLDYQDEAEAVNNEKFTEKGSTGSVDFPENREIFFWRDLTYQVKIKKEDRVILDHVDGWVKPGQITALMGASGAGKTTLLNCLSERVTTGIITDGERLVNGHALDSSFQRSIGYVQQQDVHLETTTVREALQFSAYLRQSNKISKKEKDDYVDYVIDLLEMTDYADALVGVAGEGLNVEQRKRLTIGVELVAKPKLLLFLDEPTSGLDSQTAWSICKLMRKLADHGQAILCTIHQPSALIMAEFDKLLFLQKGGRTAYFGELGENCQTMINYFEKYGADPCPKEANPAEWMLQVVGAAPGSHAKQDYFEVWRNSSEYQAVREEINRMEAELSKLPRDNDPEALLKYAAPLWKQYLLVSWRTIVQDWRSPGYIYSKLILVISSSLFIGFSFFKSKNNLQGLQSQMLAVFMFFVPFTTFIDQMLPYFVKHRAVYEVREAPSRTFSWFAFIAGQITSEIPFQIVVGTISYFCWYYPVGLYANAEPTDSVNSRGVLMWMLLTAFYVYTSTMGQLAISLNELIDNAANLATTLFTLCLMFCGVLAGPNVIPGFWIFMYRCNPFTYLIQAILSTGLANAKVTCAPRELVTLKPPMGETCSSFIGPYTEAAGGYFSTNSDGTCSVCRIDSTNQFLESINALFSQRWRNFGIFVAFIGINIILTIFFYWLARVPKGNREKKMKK

[32] = system: HEK293; test: EBV LMP1 TES2 canonical NF-kB signalling blockers – cell-based, HEK293, luciferase, cherry-pick, dose response (AID 588343); type: functional; details: Homo sapiens
[33] = molecular target: Nonstructural protein 1 (Influenza A virus, UniProt Q194T2); type: functional, Influenza A virus (A/California/07/2009(H1N1))
[34] = molecular target: Latent membrane protein 1 (Human herpesvirus 4 (strain B95-8), UniProt P03230); test: LMP1 TES1 pathway selectivity over dsRED control – imaging, HEK293T, dual-color eGFP/dsRED, cherry-picks, selectivity assay for LMP1 NF-kB inhibitor project, dose response (AID 588398); type: functional, cell-based
[35] = suppression of NO production in INS-1E cells – cell-based, Griess absorbance, dry powder, set 3, dose response (AID 488870); type: functional; details: Rattus norvegicus
[36] = system: INS1; test: suppression of NO production in INS-1E cells – cell-based, Griess absorbance, dry powder, set 2, dose response (AID 488868); type: functional; details: Rattus norvegicus
[37] = system: INS1; test: suppression of cytokine-induced beta-cell apoptosis – INS-1E, caspase luminescence, dry powder, beta-cell apoptosis inhibitor project, dose response (AID 488848); type: functional, cell-based; details: Rattus norvegicus
[38] = system: INS1; test: beta-cell survival under cytokine stress – INS-1E, ATP luminescence, dry powder, dose response (AID 488844); type: functional, cell-based; details: Rattus norvegicus
[39] = system: INS1; test: INS-1E mitochondrial potential loss inhibitors – cell-based, JC-1 fluorescence, dry powder, set 2, dose response (AID 488867); type: functional; details: Rattus norvegicus
[40] = molecular target: Dual specificity tyrosine-phosphorylation-regulated kinase 1A (Homo sapiens, UniProt Q13627); type: functional;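 also: measured against DYRK1A as one member of a broad kinome profiling panel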
[41] = molecular target: Mitogen-activated protein kinase kinase kinase kinase 4 (Homo sapiens, UniProt O95819); type: functional
[42] = molecular target: Casein kinase I isoform delta (Homo sapiens, UniProt P48730); type: functional;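 also: measured as one member (CSNK1D) of a kinome panel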
[43] = molecular target: Dual specificity protein kinase CLK4 (Homo sapiens, UniProt Q9HAZ1); type: functional
[44] = molecular target: Casein kinase II subunit alpha (Homo sapiens, UniProt P68400); type: functional
[45] = molecular target: Serine/threonine-protein kinase pim-3 (Homo sapiens, UniProt Q86V86); type: functional;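 also: value obtained as one member of a broad kinase panel profiling effort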
[46] = molecular target: Serine/threonine-protein kinase pim-1 (Homo sapiens, UniProt P11309); type: functional
[47] = molecular target: DNA dC->dU-editing enzyme APOBEC-3G (Homo sapiens, UniProt Q9HC16); test: SAR analysis of small molecule inhibitors of APOBEC3G DNA Deaminase via a fluorescence-based single-stranded DNA deaminase assay - Set 2.; type: functional; details: read-out: IC50_Mean
Sequence of DNA dC->dU-editing enzyme APOBEC-3G (Q9HC16 whole entry): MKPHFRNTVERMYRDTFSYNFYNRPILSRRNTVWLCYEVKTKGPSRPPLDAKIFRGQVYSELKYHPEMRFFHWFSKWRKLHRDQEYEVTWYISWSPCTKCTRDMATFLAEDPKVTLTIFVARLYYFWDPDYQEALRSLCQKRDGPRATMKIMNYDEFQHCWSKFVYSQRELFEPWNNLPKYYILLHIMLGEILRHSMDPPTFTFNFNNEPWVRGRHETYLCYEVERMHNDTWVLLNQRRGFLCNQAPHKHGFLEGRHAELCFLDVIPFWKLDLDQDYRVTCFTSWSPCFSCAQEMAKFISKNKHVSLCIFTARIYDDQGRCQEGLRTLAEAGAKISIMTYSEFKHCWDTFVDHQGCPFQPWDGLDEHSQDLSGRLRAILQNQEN

[48] = molecular target: DNA dC->dU-editing enzyme APOBEC-3A (Homo sapiens, UniProt P31941); test: SAR analysis of small molecule inhibitors of APOBEC3A DNA Deaminase via a fluorescence-based single-stranded DNA deaminase assay - Set 2.; type: functional; details: read-out: IC50_Mean
[49] = molecular target: T5, Sphingosine 1-phosphate receptor 4 (Homo sapiens, UniProt O95977); test: Late-stage fluorescence-based dose-response cell-based counterscreen assay to identify agonists of the Sphingosine 1-Phosphate Receptor 3 (S1P3): Sphingosine 1-Phosphate Receptor 4 (S1P4) agonist assay.; type: functional
T5 sequence (O95977 whole entry): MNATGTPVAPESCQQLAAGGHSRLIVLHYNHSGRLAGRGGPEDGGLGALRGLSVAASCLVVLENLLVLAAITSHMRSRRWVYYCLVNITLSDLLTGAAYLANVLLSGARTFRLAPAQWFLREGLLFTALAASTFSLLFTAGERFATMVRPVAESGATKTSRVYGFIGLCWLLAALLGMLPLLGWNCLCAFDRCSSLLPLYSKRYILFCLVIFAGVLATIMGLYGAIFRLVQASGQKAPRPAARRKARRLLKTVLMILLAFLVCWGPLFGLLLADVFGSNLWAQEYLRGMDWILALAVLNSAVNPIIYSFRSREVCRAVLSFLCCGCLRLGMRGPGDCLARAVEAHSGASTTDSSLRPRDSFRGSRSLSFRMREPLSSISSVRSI

[50] = molecular target: Sphingosine 1-phosphate receptor 2 (Homo sapiens, UniProt O95136); test: Late-stage fluorescence-based dose-response cell-based counterscreen assay to identify agonists of the Sphingosine 1-Phosphate Receptor 3 (S1P3): Sphingosine 1-Phosphate Receptor 2 (S1P2) agonist assay.; type: functional

Cc1cccc(OCC(=O)Nc2ccc3c(c2)C(=O)NC3=O)c1
AC50 [1]: 8 µM (active) | AC50 [2]: 1.36 µM (active)

O=C(Sc1cccc2cccnc12)c1ccccc1Br
IC50 [3]: 57.8 µM (inactive) | EC50 [4]: 36.8 µM (active) | EC50 [5]: > 120 µM (not active) | EC50 [6]: > 32 µM (inactive) | AC50 [7]: 0.383 µM (active) | EC50 [8]: > 31.5 µM (inactive) | CC50 [9]: 9.91 µM (active) | EC50 [10]: 12.7 µM (active) | IC50 [11]: 10.5 µM (active) | IC50 [12]: > 100 µM (inactive) | EC50 [13]: 0.328 µM (active) | EC50 [14]: 31.8 µM (active) | IC50 [15]: > 66 µM (inactive) | EC50 [16]: > 120 µM (not active) | EC50 [17]: > 150 µM (inconclusive) | IC50 [18]: > 25 µM (active) | EC50 [19]: 2.48 µM (active) | IC50 [20]: > 32 µM | EC50 [21]: > 40 µM (inactive) | IC50 [22]: 0.514 µM (active) | IC50 [23]: > 32 µM (inactive) | IC50 [24]: > 100 µM (inactive) | IC50 [25]: 3.51 µM (active) | EC50 [26]: > 32 µM (inactive) | IC50 [27]: > 66 µM (inactive) | IC50 [28]: 6.65 µM (active) | AC50 [29]: 13.3 µM (active) | EC50 [30]: > 120 µM (not active)

O=C(Oc1ccc2c(=O)c(Oc3ccc4ccccc4c3)coc2c1)c1cncc(Br)c1
EC50 [31]: 22.2 µM (active)

CC(=NNC(=S)Nc1ccc(C)cc1)c1ccccn1
AC50 [32]: 0.149 µM (active) | IC50 [33]: 16.6 µM (active) | AC50 [34]: 0.793 µM (active)

COc1ccc(S(=O)(=O)N(C)C[C@@H]2Oc3c(NC(=O)Nc4cccc5ccccc45)cccc3C(=O)N([C@@H](C)CO)C[C@H]2C)cc1
AC50 [35]: 26.4 µM (active) | AC50 [36]: 46.8 µM (active) | AC50 [37]: 81.2 µM (active) | AC50 [38]: 4.88 µM (active) | AC50 [39]: 259 µM (active)

O=c1oc2ccccc2c2[nH]c(-c3ccccc3)nc12
Ki [40]: 1.58 µM (active) | Ki [41]: 5.01 µM (active) | Ki [42]: 6.31 µM (active) | Ki [43]: 1.26 µM (active) | Ki [44]: 2 µM (active) | Ki [45]: 1.58 µM (active) | Ki [46]: 1 µM (active)

O=C(O)c1cc2ncccn2n1
IC50 [47]: 1.73 µM (active) | IC50 [48]: 2.6 µM (active)

O=C(c1ccc(C2CC2)o1)N(C1CCCCC1)C1CCCCC1
EC50 [49]: > 50 µM (inactive) | EC50 [50]: > 50 µM (inactive)
